Data on 18 compounds can be found in ChEMBL document CHEMBL6071170, “Development of novel focal adhesion kinase (FAK) inhibitors for targeting cancer: Structural insights and therapeutic potential” (Eur J Med Chem, 2024).

The target in data set [1] is Fibroblast growth factor receptor (Homo sapiens, UniProt P22607+P11362+P22455+P21802). Kind of data set: Inhibition of human recombinant FGFR by FRET assay. It counts as protein assay.
Data set [2] has as its target T1, Focal adhesion kinase 1 (Homo sapiens, UniProt Q05397). Kind of data set: Inhibition of N-terminal his-tagged human (1 to 422 residues) FAK.
The target in data set [3] is Protein cereblon/Focal adhesion kinase 1 (Homo sapiens, UniProt Q05397+Q96SW2). As to the kind of experiment: PROTAC activity at CRBN/FAK in human PC3 cells assessed as protein degradation incubated for 12 hrs by Western blot analysis relative to control. It counts as cell-based. As to conditions: pc-3.
Data set [4] deals with T1, Focal adhesion kinase 1. Kind of data set: Inhibition of FAK (unknown origin).
Data set [5] is described as follows: Oral bioavailability in mouse. It counts as ADME, organism-based. As to conditions: in vivo.
For data set [6], the target named is Epidermal growth factor receptor (Homo sapiens, UniProt P00533, T790M). Kind of data set: Inhibition of EGFR T790M mutant (unknown origin).
Data set [7] has as its target T1, Focal adhesion kinase 1. As to the kind of experiment: Inhibition of FAK (unknown origin) by ADP-Glo kinase assay.
Data set [8] deals with T1, Focal adhesion kinase 1. Kind of data set: Inhibition of human FAK by FRET assay.
A short description of data set [9]: Plasma stability in human assessed as half life by LC-MS/MS analysis. The data set is classed as ADME, cell-free.
Data set [10] has as its target Serine/threonine-protein kinase PLK1 (Homo sapiens, UniProt P53350). As to the kind of experiment: Inhibition of PLK1 (unknown origin).
Data set [11] addresses T2, Protein deacetylase HDAC6 (Homo sapiens, UniProt Q9UBN7).
T2 sequence (Q9UBN7 whole entry): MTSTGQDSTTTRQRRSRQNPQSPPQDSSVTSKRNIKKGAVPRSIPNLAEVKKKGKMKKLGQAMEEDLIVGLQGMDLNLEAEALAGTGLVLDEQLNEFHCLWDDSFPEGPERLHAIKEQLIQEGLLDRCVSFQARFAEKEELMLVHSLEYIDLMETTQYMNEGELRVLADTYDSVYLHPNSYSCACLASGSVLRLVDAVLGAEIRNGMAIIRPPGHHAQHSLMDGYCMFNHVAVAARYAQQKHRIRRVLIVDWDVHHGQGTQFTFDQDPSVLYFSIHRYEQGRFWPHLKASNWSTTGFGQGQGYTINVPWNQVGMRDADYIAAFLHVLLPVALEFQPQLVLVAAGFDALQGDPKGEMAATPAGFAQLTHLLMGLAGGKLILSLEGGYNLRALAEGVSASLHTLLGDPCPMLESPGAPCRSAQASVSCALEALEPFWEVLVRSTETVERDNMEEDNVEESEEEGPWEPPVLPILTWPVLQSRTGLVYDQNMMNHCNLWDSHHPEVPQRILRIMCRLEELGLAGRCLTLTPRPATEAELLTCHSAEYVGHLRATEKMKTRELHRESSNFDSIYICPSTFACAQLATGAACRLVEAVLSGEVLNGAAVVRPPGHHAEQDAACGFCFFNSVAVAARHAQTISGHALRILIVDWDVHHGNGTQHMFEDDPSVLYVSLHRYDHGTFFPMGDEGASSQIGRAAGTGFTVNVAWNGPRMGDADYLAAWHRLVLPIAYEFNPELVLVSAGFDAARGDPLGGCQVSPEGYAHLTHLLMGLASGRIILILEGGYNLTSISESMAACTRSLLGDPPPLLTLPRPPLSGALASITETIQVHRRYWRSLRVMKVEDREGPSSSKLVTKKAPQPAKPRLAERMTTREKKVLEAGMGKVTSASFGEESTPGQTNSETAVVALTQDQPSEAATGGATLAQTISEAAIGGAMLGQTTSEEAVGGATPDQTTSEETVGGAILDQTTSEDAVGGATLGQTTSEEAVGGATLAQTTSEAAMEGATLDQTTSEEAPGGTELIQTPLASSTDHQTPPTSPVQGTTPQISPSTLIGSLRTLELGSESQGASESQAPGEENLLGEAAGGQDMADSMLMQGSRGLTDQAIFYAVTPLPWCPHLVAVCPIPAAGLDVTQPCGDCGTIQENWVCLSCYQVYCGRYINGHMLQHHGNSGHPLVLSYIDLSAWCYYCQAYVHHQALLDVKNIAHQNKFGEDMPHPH
Kind of data set: Inhibition of HDAC6 (unknown origin).

In data set [12] the target is T1, Focal adhesion kinase 1. Kind of data set: Inhibition of FAK (unknown origin) by FRET analysis.
The subject of data set [13] is BXPC-3. As to the kind of experiment: Antiproliferative activity against human BXPC-3 cells. It counts as functional, cell-based.
Data set [14] concerns the target T3, Protein-tyrosine kinase 2-beta (Homo sapiens, UniProt Q14289). Kind of data set: Inhibition of PYK2 (unknown origin) by KinomeScan assay.
Data set [15] has as its target T1, Focal adhesion kinase 1. Kind of data set: Inhibition of FAK (unknown origin) by HTRF assay.
The target in data set [16] is ALK tyrosine kinase receptor (Homo sapiens, UniProt Q9UM73). As to the kind of experiment: Inhibition of ALK (unknown origin).
The target in data set [17] is Proto-oncogene tyrosine-protein kinase ROS (Homo sapiens, UniProt P08922). As to the kind of experiment: Inhibition of ROS1 (unknown origin).
Proto-oncogene tyrosine-protein kinase ROS, sequence (P08922 whole entry): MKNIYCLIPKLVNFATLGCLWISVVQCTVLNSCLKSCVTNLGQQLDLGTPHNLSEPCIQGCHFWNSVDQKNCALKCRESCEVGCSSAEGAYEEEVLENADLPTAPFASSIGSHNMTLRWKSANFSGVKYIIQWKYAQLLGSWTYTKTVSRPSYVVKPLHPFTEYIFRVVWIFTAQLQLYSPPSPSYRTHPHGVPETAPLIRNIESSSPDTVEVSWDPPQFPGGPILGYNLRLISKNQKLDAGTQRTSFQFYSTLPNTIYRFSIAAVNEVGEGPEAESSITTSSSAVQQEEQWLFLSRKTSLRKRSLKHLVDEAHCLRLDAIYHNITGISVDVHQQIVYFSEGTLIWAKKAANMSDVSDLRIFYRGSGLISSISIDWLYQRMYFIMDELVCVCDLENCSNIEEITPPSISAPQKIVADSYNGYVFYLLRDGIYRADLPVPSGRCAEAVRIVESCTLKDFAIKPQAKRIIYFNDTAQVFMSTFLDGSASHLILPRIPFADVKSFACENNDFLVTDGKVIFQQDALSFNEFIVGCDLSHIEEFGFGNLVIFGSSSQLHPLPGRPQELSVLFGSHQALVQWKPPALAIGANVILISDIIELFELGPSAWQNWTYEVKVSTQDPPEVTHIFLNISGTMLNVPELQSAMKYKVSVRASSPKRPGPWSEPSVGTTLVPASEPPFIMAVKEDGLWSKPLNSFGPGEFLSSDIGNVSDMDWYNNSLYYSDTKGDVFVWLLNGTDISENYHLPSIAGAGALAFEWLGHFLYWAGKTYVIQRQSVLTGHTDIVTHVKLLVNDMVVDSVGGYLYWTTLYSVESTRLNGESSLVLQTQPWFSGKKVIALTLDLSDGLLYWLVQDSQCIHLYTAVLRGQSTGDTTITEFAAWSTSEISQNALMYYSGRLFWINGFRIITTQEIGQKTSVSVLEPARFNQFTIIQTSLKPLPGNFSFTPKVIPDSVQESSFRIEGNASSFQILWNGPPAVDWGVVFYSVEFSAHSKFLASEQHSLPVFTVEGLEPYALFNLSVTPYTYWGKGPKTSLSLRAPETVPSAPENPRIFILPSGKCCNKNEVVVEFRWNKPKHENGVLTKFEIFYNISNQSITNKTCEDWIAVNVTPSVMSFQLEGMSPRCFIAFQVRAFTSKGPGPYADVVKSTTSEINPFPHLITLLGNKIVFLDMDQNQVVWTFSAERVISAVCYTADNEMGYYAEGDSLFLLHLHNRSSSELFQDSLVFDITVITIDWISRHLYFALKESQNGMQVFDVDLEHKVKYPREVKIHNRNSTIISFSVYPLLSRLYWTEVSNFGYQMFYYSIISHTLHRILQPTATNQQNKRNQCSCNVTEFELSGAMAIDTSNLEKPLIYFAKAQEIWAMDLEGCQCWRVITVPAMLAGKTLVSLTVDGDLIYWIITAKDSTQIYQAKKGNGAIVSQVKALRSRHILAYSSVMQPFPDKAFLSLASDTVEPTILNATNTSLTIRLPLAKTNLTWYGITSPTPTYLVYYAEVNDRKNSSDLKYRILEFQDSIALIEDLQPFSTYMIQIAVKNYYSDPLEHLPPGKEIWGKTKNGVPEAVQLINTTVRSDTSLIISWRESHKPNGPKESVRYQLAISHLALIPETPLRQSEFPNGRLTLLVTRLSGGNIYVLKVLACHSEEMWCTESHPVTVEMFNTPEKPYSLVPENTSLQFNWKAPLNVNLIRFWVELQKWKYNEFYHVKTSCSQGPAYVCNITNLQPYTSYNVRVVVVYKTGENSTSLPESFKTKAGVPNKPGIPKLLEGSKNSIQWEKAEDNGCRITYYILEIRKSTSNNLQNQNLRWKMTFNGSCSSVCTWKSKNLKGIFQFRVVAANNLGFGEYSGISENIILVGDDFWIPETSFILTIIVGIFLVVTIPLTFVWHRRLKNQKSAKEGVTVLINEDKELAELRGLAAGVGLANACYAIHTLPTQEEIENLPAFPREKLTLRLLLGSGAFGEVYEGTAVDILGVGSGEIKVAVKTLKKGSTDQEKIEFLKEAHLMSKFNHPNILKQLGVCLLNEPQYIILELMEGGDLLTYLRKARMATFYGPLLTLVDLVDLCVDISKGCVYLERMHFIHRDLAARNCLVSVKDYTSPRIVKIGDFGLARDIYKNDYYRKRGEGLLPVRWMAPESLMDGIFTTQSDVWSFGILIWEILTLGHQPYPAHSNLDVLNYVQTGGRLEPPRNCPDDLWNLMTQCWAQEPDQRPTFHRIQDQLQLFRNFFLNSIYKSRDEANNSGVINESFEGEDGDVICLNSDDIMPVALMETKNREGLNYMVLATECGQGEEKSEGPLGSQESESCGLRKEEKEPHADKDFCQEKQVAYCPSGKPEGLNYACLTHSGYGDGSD
Data set [18] deals with T3, Protein-tyrosine kinase 2-beta. Kind of data set: Inhibition of PYK2 (unknown origin).
For data set [19], the target named is T1, Focal adhesion kinase 1. As to the kind of experiment: Binding affinity to FAK (unknown origin) assessed as inhibition constant.

T1 sequence (Q05397 whole entry, the tested form may be a part): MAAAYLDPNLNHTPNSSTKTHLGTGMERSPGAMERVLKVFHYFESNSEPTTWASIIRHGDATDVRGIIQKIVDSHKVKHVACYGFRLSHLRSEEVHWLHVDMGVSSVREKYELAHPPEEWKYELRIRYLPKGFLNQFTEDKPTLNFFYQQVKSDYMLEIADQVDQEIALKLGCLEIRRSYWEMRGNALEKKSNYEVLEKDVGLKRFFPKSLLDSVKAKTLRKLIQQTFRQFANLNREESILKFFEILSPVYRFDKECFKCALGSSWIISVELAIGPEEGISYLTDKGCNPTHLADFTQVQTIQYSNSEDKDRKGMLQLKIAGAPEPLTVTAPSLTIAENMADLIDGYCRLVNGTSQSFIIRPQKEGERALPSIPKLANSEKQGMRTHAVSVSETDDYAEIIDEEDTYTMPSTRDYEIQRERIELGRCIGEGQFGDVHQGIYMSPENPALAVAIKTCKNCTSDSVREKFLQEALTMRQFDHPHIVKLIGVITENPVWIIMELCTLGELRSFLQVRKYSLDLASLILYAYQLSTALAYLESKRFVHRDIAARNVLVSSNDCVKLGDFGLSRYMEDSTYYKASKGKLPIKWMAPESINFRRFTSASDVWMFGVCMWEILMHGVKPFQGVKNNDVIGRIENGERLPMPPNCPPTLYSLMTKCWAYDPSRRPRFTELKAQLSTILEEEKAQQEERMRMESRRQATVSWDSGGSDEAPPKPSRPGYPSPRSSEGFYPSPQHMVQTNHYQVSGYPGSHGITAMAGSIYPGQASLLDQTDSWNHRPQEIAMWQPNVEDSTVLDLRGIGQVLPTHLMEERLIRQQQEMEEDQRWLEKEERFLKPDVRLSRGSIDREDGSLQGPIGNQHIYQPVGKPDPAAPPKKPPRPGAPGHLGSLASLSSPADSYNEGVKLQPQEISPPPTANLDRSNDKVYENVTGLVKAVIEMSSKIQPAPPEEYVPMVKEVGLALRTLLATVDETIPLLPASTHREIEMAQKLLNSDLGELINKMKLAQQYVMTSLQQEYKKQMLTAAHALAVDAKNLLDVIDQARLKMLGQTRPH
T3 sequence (Q14289 whole entry): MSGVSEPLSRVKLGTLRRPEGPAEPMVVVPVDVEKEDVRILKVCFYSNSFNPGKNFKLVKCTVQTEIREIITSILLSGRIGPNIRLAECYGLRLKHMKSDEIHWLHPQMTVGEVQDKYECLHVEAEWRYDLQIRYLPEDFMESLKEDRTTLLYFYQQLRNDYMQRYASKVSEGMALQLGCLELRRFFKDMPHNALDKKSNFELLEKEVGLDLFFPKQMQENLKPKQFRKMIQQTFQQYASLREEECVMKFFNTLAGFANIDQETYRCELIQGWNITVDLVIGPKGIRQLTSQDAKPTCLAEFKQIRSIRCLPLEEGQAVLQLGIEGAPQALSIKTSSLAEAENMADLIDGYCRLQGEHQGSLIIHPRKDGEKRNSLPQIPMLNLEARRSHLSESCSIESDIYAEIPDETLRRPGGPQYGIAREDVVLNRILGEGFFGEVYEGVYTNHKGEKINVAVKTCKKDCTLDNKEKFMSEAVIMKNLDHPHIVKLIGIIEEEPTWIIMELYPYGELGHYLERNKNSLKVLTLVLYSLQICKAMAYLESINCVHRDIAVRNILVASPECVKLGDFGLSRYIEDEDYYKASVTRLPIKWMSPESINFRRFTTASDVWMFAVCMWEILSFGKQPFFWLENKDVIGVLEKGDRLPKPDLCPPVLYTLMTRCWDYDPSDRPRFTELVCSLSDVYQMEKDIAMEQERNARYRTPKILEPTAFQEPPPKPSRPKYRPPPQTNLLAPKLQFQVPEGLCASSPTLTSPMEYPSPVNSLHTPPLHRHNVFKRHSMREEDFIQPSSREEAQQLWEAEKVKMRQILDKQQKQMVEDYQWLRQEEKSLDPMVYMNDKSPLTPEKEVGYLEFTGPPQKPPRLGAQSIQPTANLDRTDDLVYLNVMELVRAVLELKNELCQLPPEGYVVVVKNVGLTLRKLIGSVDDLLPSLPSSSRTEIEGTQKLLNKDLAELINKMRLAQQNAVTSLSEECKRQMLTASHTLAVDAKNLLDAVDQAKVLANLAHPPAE
Serine/threonine-protein kinase PLK1, sequence (P53350 whole entry): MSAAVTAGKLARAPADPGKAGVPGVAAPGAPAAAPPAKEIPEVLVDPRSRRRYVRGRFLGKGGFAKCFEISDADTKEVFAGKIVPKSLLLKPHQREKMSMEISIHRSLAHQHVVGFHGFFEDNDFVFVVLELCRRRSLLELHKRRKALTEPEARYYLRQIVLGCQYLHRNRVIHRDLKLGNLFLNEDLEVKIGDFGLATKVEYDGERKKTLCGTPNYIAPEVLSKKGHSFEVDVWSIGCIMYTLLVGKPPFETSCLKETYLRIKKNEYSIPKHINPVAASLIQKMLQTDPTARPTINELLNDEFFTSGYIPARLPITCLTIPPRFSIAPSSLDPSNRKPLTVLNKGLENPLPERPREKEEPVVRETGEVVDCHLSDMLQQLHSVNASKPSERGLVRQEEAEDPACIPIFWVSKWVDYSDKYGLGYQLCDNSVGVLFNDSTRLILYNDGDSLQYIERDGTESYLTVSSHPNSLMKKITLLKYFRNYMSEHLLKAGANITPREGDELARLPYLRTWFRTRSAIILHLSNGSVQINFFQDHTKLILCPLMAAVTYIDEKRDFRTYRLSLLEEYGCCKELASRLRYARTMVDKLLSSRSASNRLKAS

For `CNC(=O)c1ccccc1Nc1ncnc(Nc2cc(OC)c(OC)c(OC)c2)n1`, in data set [1], the IC50 turned out to be 370 nM.

On to `OCC[N+]12CN3CN(CN(C3)C1)C2`, for which half-maximal inhibition in data set [2] (IC50) required 50 nM. On to `Cc1ncsc1-c1ccc(CNC(=O)[C@@H]2C[C@@H](O)CN2C(=O)[C@@H](NC(=O)CCOCCOc2ccc(Nc3ncc(C(F)(F)F)c(NCc4cccc(N(C)S(C)(=O)=O)c4)n3)cc2)C(C)(C)C)cc1`, for which, in [3], the DC50 is 3 nM. For the compound `CNC(=O)c1ccccc1Nc1cc(Nc2cc(C)c(C3CCN(CCCCCCNC(=O)COc4cccc5c4C(=O)N(C4CCC(=O)NC4=O)C5=O)CC3)cc2OC(C)C)ncc1C(F)(F)F` (stereo not drawn), the IC50 in [4] was 26 nM. In turn, `C=CC(=O)NCCNc1c(NCc2ccc(Nc3ncc(Cl)c(Nc4ccccc4C(=O)NC)n3)cc2)c(=O)c1=O` registered a bioavailability in data set [5] of 21%. Regarding `CNC(=O)c1ccccc1Nc1nc(Nc2ccc(NC(=O)CN3CCOCC3)c(C)c2)ncc1Cl`, the IC50 in data set [6] is 3.89 nM; in data set [7] it was 1.03 nM. The compound `CNC(=O)c1ccccc1Nc1cc(Nc2ccc(N3CCN(CC(=O)N[C@H](C(=O)N4C[C@H](O)C[C@H]4C(=O)N[C@@H](C)c4ccc(-c5scnc5C)cc4)C(C)(C)C)CC3)cc2OC)ncc1C(F)(F)F` had an IC50 in data set [8] of 1.58 nM. Take `CN(c1ncccc1CNc1nc(Nc2ccc(N3CCN(CCCCCCC(=O)NCCNc4cccc5c4C(=O)N(C4CCC(=O)NC4=O)C5=O)CC3)cc2)ncc1C(F)(F)F)S(C)(=O)=O` (stereo not drawn): in data set [9], the half-life was over 3.25 h. Take `O=C(CSC1Nc2ccccc2C(=O)N1c1ccccc1)N1CCN(c2ccccc2Cl)CC1` (stereo not drawn): the IC50 was 79 nM in [10] and 86 nM in data set [4]. Regarding `CNC(=O)c1ccccc1Nc1cc(Nc2ccc(NC(=O)CCCCCCC(=O)NO)cc2)ncc1Cl`, the IC50 in [11] was 16 nM; in [12], 132 nM. The compound `Cn1cc(-c2nn3cc(-c4ccco4)nc3s2)c2ccccc21` showed an IC50 in data set [13] of 1040 nM. In [14], `CNC(=O)c1ccccc1Nc1cc(Nc2cc(C)c(C3CCNCC3)cc2OC(C)C)ncc1C(F)(F)F` had an IC50 of 623 nM. Regarding `CNC(=O)c1ccccc1Nc1nc(Nc2ccc(N3CCN(C)CC3)cc2)nc2[nH]ccc12`, the midpoint of inhibition in data set [4], the IC50, lay at 19.1 nM. Turning to `Clc1cccc(Cn2ccc3cnc(Nc4ccc(N5CCNCC5)cc4)nc32)c1`, in [15], the IC50 amounted to 9.9 nM.

The compound `O=C1CCc2cccc(Oc3nc(Nc4ccc(N5CCN(C(=S)SCCCN6CCOCC6)CC5)cc4)ncc3C(F)(F)F)c21` showed an IC50 in data set [4] of 45 nM. Take `Cc1cc(Nc2ncc(Cl)c(Nc3ccccc3S(=O)(=O)C(C)C)n2)c(OC(C)C)cc1C1=CCN(C2CCOCC2)CC1` [APG-2449]: the IC50 in data set [16] worked out at 1.6 nM; in data set [17] it was 0.81 nM; in data set [4], 5.4 nM. Take `CNC(=O)c1ccc(Nc2ncc(C(F)(F)F)c(NCc3nccnc3N(C)S(C)(=O)=O)n2)cc1` [DEFACTINIB]: in data set [18], the IC50 was found to be 0.6 nM. As for `CONC(=O)c1ccccc1Nc1cc(Nc2cc(C)nn2C(C)C)ncc1Cl` [GSK-2256098], the Ki in [19] was determined as 0.4 nM.
